Laboratory results published in article PMC9412534, “Diindolylmethane Derivatives: New Selective Blockers for T-Type Calcium Channels” (Membranes, 2022).
Like-named read-outs stand apart in the source and are kept apart here.

Key:
CaV3.2 = CaV3.2 (Homo sapiens, UniProt O95180); assay: T-type calcium channel window current FLIPR assay, CaV3.2; assay type: cell-based
Protocol: (§1) The human embryonic kidney 293 (HEK 293) cell lines (from Emmanuel Bourinet, Montpellier, France) stably expressing CaV3.2 or CaV3.3 were cultured under 5% carbon dioxide at 37 °C in Dulbecco’s Modified Eagle Medium (DMEM) Glutamax (Gibco, Life Technologies, Carlsbad, CA, USA) supplemented with 10% (v/v) fetal bovine serum (FBS), 100 U/mL penicillin, 100 μg/mL streptomycin (Gibco, Life Technologies, Carlsbad, CA, USA), and 750 μg/mL geneticin (G418) (Gibco, Life Technologies). The Chinese Hamster Ovary (CHO) cell lines (Emmanuel Bourinet, Montpellier, France) expressing CaV3.1 were cultured under 5% carbon dioxide at 37 °C in Alpha Minimum Essential Media (MEM) Glutamax (Gibco, Life Technologies), supplemented with 10% (v/v) fetal bovine serum (FBS) and 300 μg/mL geneticin (G418) (Gibco, Life Technologies). The human neuroblastoma SH-SY5Y cells (Victor Diaz, Goettingen, Germany) were cultured under 5% carbon dioxide at 37 °C in RPMI 1640 antibiotic-free medium (Invitrogen, Carlsbad, CA, USA), supplemented with 15% FBS and 2 mM GlutaMAX™ (Invitrogen). D-PBS (Gibco, Life Technologies) was used to wash the cells, and 0.25% Trypsin-EDTA (Gibco, Life Technologies) was used to detach cells from the flask surface. They were split in a ratio of 1:5 (ideally 1000 cells/cm^2) when they reached 70–80% confluence (every 2–3 days). Transiently transfected CaV3.1 HEK293 T cells were used in FLIPR Assays. HEK 293 T cells were cultured under 5% carbon dioxide at 37 °C in DMEM supplemented with 10% (v/v) FBS. D-PBS was used to wash the cells, and 0.25% Trypsin-EDTA was used to detach cells from the flask surface. The cells were split and seeded at 6 million cells per T175 flask, to reach 70–80% confluence after 24 h. The next day, 12 μg DNA of human CaV3.1 was incubated in 900 μL serum-free DMEM with 36 μL FuGENE HD transfection reagent (Promega Corporation, Madison, WI, USA) (1:3 DNA/Fugene ratio) for 20 min, and then the mixture was added into the cell flask slowly, drop by drop. After the transfection, the cells were cultured under 5% carbon dioxide at 37 °C for 24 h and then moved to a 28 °C incubator.
HEK 293 cells stably expressing CaV3.2 or CaV3.3 were seeded into 384-well black wall clear bottom plates (Corning) at a density of 30,000 cells per well. Transiently transfected CaV3.1HEK293 T cells were seeded into 384-well black wall clear bottom plates at a density of 60,000 cells per well. Once the cells reached 90–95% confluence after 24 h, the media were removed from the wells and replaced with 20 μL of 10% calcium 4 dye (Molecular Devices, Sunnyvale, CA, USA) in HBSS-HEPES (containing 5 mM KCl, 10 mM HEPES, 140 mM NaCl, 10 mM glucose, and 0.5 mM CaCl2, pH 7.4) with 0.1% bovine serum albumin (BSA). The cells were incubated for 30 min at 37 °C in the presence of 5% carbon dioxide. Each well on the reagent plates for the first addition contained 15 μL different concentrations of compounds dissolved in HBSS-HEPES containing 0.1% BSA and <0.5% DMSO and was incubated for 20 min after loaded. Positive and negative controls contained 15 μL of HBSS-HEPES (0.1% BSA) alone. The plates were placed in the FLIPR^TETRA (Molecular Devices, Sunnyvale, CA, USA) programmed to measure maximum fluorescence intensity following a second addition of the agonist 5 mM CaCl2. The fluorescence readings were recorded and converted as described previously, and HBSS-HEPES (0.1% BSA) was used in the second addition as a negative control.

CaV1 = assay: HVA L-type calcium channel FLIPR assay in SH-SY5Y cells; assay type: cell-based, human; conditions: 1 µM CVID present, n = 3, read-out: IC50 CaV1 (HVA CaVs)
Protocol: as §1
SH-SY5Y cells were seeded into 384-well black wall clear bottom plates at a density of 15,000 cells per well, resulting in 90–95% confluence after 24 h. The media were then removed from the wells and replaced with 20 μL of 10% calcium 4 dye (Molecular Devices) in physiological salt solution (PSS) (containing 5.9 mM KCl, 1.4 mM MgCl2, 10 mM HEPES, 1.2 mM NaH2 PO4, 5 mM NaHCO3, 140 mM NaCl, 11.5 mM glucose, and 1.8 mM CaCl2, pH 7.4) with 0.1% BSA. As reported, for N-type calcium channel FLIPR assays the cells were pre-incubated with 10 µM nifedipine added in the dye to ensure full inhibition of L-type calcium responses. For L-type calcium channel FLIPR assays, the cells were pre-incubated with 1 µM CVID added in the dye to ensure full inhibition of N-type calcium responses. Positive control on the first reagent plate contained 15 μL of PSS (0.1% BSA), whereas PSS (0.1% BSA) containing 1 µM CVID and 10 µM nifedipine (final concentration) was used as a negative control. The fluorescence readings were recorded and converted as described previously, and agonist containing 90 mM KCl + 5 mM CaCl2 was used in the second addition.

T-47D cells = assay: Cell viability MTT assay, T-47D; assay type: cell-based, human; conditions: for viability at 50 µM: n = 4; for IC50: n = 3
Protocol: (§2) Human breast cancer cell line MCF-7 and T-47D, lung cancer cell line A549, and colon cancer cell line HT-29 were cultured under 5% carbon dioxide at 37 °C in DMEM Glutamax (Gibco, Life Technologies) supplemented with 10% (v/v) FBS. They were split in a ratio of 1:3–1:6 (ideally 2–4 × 10,000 cells/cm^2) when they reached 70–80% confluence using 0.25% Trypsin-EDTA. For cell viability MTT assay, cells were seeded into 96-well clear bottom culture plates (Corning, Lowell, MA, USA) at a density of 5 × 10^3 cells/well and settled at 37 °C for 24 h.
(§3) Seeded cells were treated with various concentrations of compounds for desired time period (24, 48 and 72 h). After the treatments, the media were removed from each well, and replaced with 25 μL of serum-free media and 25 μL of MTT Reagent (cat. no., ab211091; Abcam, Cambridge, MA, USA). The plate was then incubated at 37 °C for 3 h, and 75 μL of MTT Solvent (cat. no., ab211091; Abcam) was added into each well after incubation. The absorbance was evaluated at 590 nm. Cell-wells treated with 0.1% DMSO were used as positive control and no cell-wells were used as background control.

A549 cells = assay: Cell viability MTT assay, A549; assay type: cell-based, human; conditions: for viability at 50 µM: A549, 50 µM, n = 4; for IC50: n = 3
Protocol: as §2, §3

[1] = FLIPR window current, n = 3, read-out: IC50 CaV3.2 (LVA CaVs)
[2] = FLIPR, one separate experiment in quadruplicate (n = 4), read-out: IC50 of representative concentration-response curve, CaV3.2 window current
[3] = Homo sapiens, T47D, 72 h treatment
[4] = Homo sapiens, T47D, 72 h, 72 h treatment
[5] = Homo sapiens, A549, 72 h, 72 h treatment

Sequence of CaV3.2 (O95180 whole entry): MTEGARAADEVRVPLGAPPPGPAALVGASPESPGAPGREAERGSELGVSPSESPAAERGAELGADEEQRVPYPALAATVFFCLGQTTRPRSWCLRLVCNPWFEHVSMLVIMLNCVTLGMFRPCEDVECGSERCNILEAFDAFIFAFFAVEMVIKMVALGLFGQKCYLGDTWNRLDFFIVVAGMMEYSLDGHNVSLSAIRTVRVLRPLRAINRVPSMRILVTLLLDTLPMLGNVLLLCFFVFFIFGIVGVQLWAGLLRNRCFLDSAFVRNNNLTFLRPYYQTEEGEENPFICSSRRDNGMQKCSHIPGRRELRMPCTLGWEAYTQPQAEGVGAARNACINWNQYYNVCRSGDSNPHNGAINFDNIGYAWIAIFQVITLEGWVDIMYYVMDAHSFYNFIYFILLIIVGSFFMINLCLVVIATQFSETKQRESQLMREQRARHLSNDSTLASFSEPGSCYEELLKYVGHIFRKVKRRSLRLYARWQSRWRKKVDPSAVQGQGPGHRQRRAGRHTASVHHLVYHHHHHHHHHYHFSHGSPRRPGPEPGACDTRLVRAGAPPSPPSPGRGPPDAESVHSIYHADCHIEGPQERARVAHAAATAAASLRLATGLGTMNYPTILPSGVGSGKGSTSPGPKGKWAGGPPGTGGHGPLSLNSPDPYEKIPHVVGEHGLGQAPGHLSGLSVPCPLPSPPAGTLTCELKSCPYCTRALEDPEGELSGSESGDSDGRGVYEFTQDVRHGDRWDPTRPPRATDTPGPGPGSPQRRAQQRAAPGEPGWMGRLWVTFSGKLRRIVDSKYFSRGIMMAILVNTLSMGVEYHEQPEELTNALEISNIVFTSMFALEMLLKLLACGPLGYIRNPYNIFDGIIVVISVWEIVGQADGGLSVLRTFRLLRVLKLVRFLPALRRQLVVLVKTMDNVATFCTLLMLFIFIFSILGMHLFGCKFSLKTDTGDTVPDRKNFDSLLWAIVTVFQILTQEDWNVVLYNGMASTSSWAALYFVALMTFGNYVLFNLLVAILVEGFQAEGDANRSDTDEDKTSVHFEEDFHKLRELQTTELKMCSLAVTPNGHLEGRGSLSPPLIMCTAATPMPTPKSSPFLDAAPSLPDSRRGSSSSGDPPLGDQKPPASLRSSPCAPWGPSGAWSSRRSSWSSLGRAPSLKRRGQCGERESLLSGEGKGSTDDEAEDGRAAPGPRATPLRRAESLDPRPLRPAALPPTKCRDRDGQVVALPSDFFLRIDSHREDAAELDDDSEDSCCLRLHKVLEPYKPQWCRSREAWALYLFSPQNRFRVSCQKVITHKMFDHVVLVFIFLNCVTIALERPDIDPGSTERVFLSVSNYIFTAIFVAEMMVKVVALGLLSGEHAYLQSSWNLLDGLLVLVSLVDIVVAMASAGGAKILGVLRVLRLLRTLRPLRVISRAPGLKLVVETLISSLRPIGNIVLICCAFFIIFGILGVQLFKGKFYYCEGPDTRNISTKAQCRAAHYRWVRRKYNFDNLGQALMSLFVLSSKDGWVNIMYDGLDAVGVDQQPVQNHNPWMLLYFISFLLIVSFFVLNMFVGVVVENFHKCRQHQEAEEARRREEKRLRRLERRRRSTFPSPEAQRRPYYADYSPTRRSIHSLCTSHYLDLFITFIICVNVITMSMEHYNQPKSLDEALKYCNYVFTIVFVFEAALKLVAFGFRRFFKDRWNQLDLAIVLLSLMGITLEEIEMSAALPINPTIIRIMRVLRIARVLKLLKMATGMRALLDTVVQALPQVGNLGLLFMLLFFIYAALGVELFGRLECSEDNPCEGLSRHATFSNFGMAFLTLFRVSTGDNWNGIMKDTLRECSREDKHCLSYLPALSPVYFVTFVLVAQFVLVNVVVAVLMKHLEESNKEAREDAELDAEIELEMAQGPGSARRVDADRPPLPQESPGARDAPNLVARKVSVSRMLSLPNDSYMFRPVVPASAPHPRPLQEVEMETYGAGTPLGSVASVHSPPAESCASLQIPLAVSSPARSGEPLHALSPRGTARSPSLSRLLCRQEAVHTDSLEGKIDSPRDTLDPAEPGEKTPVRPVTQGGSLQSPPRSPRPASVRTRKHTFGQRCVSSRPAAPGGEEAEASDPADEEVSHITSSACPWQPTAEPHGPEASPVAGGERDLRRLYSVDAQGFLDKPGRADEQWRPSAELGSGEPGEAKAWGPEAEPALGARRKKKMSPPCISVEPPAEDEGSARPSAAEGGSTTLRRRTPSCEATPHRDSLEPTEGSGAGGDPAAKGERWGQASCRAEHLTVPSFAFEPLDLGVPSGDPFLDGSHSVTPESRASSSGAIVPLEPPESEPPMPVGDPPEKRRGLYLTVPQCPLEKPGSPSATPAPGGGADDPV

IC50 (CaV1) [µM] | reduced potency for CaV3.2 window current compared to DIM (CaV3.2; FLIPR) | IC50 (CaV3.2; [1]) [µM] | IC50 (CaV3.2; [2]) [µM] | IC50 (T-47D cells; [4]) [µM] | IC50 (A549 cells; [5]) [µM] | IC50 (T-47D cells; 72 h treatment) [µM] | IC50 (T-47D cells; Homo sapiens, T47D, 24 h, 24 h treatment) [µM] | IC50 (T-47D cells; Homo sapiens, T47D, 48 h, 48 h treatment) [µM] | IC50 (A549 cells; 72 h treatment) [µM] | IC50 (A549 cells; Homo sapiens, A549, 24 h, 24 h treatment) [µM] | IC50 (A549 cells; Homo sapiens, A549, 48 h, 48 h treatment) [µM] | SMILES | IC50 (CaV3.2; IC50 CaV3.2 (LVA CaVs), FLIPR window current, n = 3) [µM] | IC50 (CaV3.2; IC50 of representative concentration-response curve, CaV3.2 window current, FLIPR, one separate experiment in quadruplicate (n = 4)) [µM] | viability at 50 µM (T-47D cells; [3]) [%] | viability at 50 µM (A549 cells; Homo sapiens, 72 h treatment) [%]
61 ± 3.99 | ~ 1.4 fold | 73.9 ± 2.48 | 74 | 44 | 66 |  |  |  |  |  |  | O=C(c1c[nH]c2ccccc12)c1c[nH]c2ccccc12 [DIM-one, 3,3′-diindolylmethanone] |  |  | 50.6 ± 2.08 | 81.3 ± 3
38.8 ± 5.01 |  | 57.3 ± 3.38 |  | 4 | 3 | 4.1 | 13.8 | 3.9 | 3.5 | 8 | 4.7 | O=C(c1c[nH]c2cc(Br)ccc12)c1c[nH]c2cc(Br)ccc12 [IV] |  |  | 6.14 ± 0.55 | 2.92 ± 0.29
68.6 ± 6.65 |  | 52.2 ± 3.8 | 54.7 | 36 | 47 |  |  |  |  |  |  | c1ccc2c(Cc3c[nH]c4ccccc34)c[nH]c2c1 [DIM, 3,3′-diindolylmethane, reference compound] |  |  | 18.9 ± 1.15 | 55.6 ± 1.13

SMILES | IC50 (CaV1) [µM] | reduced potency for CaV3.2 window current compared to DIM (CaV3.2; FLIPR) | IC50 (CaV3.2; [1]) [µM] | IC50 (CaV3.2; [2]) [µM] | IC50 (T-47D cells; [4]) [µM] | IC50 (A549 cells; [5]) [µM] | IC50 (T-47D cells; 72 h treatment) [µM] | IC50 (T-47D cells; Homo sapiens, T47D, 24 h, 24 h treatment) [µM] | IC50 (T-47D cells; Homo sapiens, T47D, 48 h, 48 h treatment) [µM] | IC50 (A549 cells; 72 h treatment) [µM] | IC50 (A549 cells; Homo sapiens, A549, 24 h, 24 h treatment) [µM] | IC50 (A549 cells; Homo sapiens, A549, 48 h, 48 h treatment) [µM] | IC50 (CaV3.2; IC50 CaV3.2 (LVA CaVs), FLIPR window current, n = 3) [µM] | IC50 (CaV3.2; IC50 of representative concentration-response curve, CaV3.2 window current, FLIPR, one separate experiment in quadruplicate (n = 4)) [µM] | viability at 50 µM (T-47D cells; [3]) [%] | viability at 50 µM (A549 cells; Homo sapiens, 72 h treatment) [%]
O=C(c1cn(Cc2ccccc2)c2ccccc12)c1cn(Cc2ccccc2)c2ccccc12 [IX, bis(1-benzyl-1H-indol-3-yl)methanone] | 48 ± 2.79 |  |  |  |  |  |  |  |  |  |  |  | 3.05 ± 0.51 | 3.28 |  | 
